Key:
MCF7 = test: Antiproliferative activity against human MCF7 cells expressing wild-type p53 incubated for 72 hrs by MTT assay; assay type: functional, cell-based; conditions: MCF7, 72 h
[1] = Antiproliferative activity against human U-87 MG cells expressing wild-type p53 incubated for 72 hrs by MTT assay; assay type: functional, cell-based, U-87MG ATCC
ZR-75-1 = test: Antiproliferative activity against human ZR-75-1 cells expressing wild-type p53 incubated for 72 hrs by MTT assay; assay type: functional, cell-based; conditions: ZR-75-1, 72 h
HCT-116 [2] = test: Antiproliferative activity against human HCT-116 cells expressing wild-type p53 incubated for 72 hrs by MTT assay; assay type: functional, cell-based; conditions: HCT-116, 72 h
A549 = test: Antiproliferative activity against human A549 cells expressing wild-type p53 incubated for 72 hrs by MTT assay; assay type: functional, cell-based; conditions: A549, 72 h
HeLa = test: Antiproliferative activity against human HeLa cells expressing wild-type p53 incubated for 72 hrs by MTT assay; assay type: functional, cell-based
A-375 = test: Antiproliferative activity against human A-375 cells expressing wild-type p53 incubated for 72 hrs by MTT assay; assay type: functional, cell-based; conditions: A-375, 72 h
HepG2 = test: Antiproliferative activity against human HepG2 cells expressing wild-type p53 incubated for 72 hrs by MTT assay; assay type: functional, cell-based; conditions: HepG2, 72 h
[3] = Antiproliferative activity against human SJSA-1 cells expressing wild-type p53 incubated for 72 hrs by MTT assay; assay type: functional, cell-based; conditions: SJSA-1, 72 h
[4] = Antiproliferative activity against HEK293T cells incubated for 72 hrs by MTT assay; assay type: toxicity, cell-based, HEK-293T; conditions: human
[5] = Induction of alpha-helical conformation in phosphate buffer at pH 7 at 100 uM by CD analysis; assay type: physicochemical; conditions: pH 7, 100 µM
[6] = Stability of compound in 50 percent human serum assessed as half life measured for 24 hrs by HPLC analysis; assay type: ADME, cell-free; conditions: 50% human serum
HCT-116 [7] = test: Induction of cell cycle arrest in human HCT-116 cells assessed as accumulation at G1 phase at 5 uM incubated for 24 hrs by PI staining based flow cytometry (reference value: 50.7 %); assay type: functional
HCT-116 [8] = test: Induction of cell cycle arrest in human HCT-116 cells assessed as accumulation at S phase at 5 uM incubated for 24 hrs by PI staining based flow cytometry (reference value: 29.4 %); assay type: functional
HCT-116 [9] = test: Induction of cell cycle arrest in human HCT-116 cells assessed as accumulation at G2 phase at 5 uM incubated for 24 hrs by PI staining based flow cytometry (reference value: 17.5 %); assay type: functional
HCT-116 [10] = test: Induction of cell cycle arrest in human HCT-116 cells assessed as accumulation at G1 phase at 10 uM incubated for 24 hrs by PI staining based flow cytometry (reference value: 50.7 %); assay type: functional
HCT-116 [11] = test: Induction of cell cycle arrest in human HCT-116 cells assessed as accumulation at S phase at 10 uM incubated for 24 hrs by PI staining based flow cytometry (reference value: 29.4 %); assay type: functional
HCT-116 [12] = test: Induction of cell cycle arrest in human HCT-116 cells assessed as accumulation at G2 phase at 10 uM incubated for 24 hrs by PI staining based flow cytometry (reference value: 17.5 %); assay type: functional
HCT-116 [13] = test: Induction of cell cycle arrest in human HCT-116 cells assessed as accumulation at G1 phase at 20 uM incubated for 24 hrs by PI staining based flow cytometry (reference value: 50.7 %); assay type: functional
HCT-116 [14] = test: Induction of cell cycle arrest in human HCT-116 cells assessed as accumulation at S phase at 20 uM incubated for 24 hrs by PI staining based flow cytometry (reference value: 29.4 %); assay type: functional
HCT-116 [15] = test: Induction of cell cycle arrest in human HCT-116 cells assessed as accumulation at G2 phase at 20 uM incubated for 24 hrs by PI staining based flow cytometry (reference value: 17.5 %); assay type: functional
HCT-116 [16] = test: Induction of apoptosis in human HCT-116 cells at 25 uM incubated for 48 hrs by Annexin V-FITC/PI staining based flow cytometry relative to control; assay type: functional
HCT-116 [17] = test: Induction of apoptosis in human HCT-116 cells at 50 uM incubated for 48 hrs by Annexin V-FITC/PI staining based flow cytometry relative to control; assay type: functional
HCT-116 [18] = test: Induction of apoptosis in human HCT-116 cells at 100 uM incubated for 48 hrs by Annexin V-FITC/PI staining based flow cytometry relative to control; assay type: functional
HCT-116 [19] = test: Induction of cell cycle arrest in human HCT-116 cells assessed as accumulation at G1 phase at 5 uM incubated for 24 hrs by PI staining based flow cytometry (reference value: 48.8 %); assay type: functional
HCT-116 [20] = test: Induction of cell cycle arrest in human HCT-116 cells assessed as accumulation at S phase at 5 uM incubated for 24 hrs by PI staining based flow cytometry (reference value: 31.8 %); assay type: functional
HCT-116 [21] = test: Induction of cell cycle arrest in human HCT-116 cells assessed as accumulation at G2 phase at 5 uM incubated for 24 hrs by PI staining based flow cytometry (reference value: 17.1 %); assay type: functional
HCT-116 [22] = test: Induction of cell cycle arrest in human HCT-116 cells assessed as accumulation at G1 phase at 10 uM incubated for 24 hrs by PI staining based flow cytometry (reference value: 48.8 %); assay type: functional
HCT-116 [23] = test: Induction of cell cycle arrest in human HCT-116 cells assessed as accumulation at S phase at 10 uM incubated for 24 hrs by PI staining based flow cytometry (reference value: 31.8 %); assay type: functional
HCT-116 [24] = test: Induction of cell cycle arrest in human HCT-116 cells assessed as accumulation at G2 phase at 10 uM incubated for 24 hrs by PI staining based flow cytometry (reference value: 17.1 %); assay type: functional
HCT-116 [25] = test: Induction of cell cycle arrest in human HCT-116 cells assessed as accumulation at G1 phase at 20 uM incubated for 24 hrs by PI staining based flow cytometry (reference value: 48.8 %); assay type: functional
HCT-116 [26] = test: Induction of cell cycle arrest in human HCT-116 cells assessed as accumulation at S phase at 20 uM incubated for 24 hrs by PI staining based flow cytometry (reference value: 31.8 %); assay type: functional
HCT-116 [27] = test: Induction of cell cycle arrest in human HCT-116 cells assessed as accumulation at G2 phase at 20 uM incubated for 24 hrs by PI staining based flow cytometry (reference value: 17.1 %); assay type: functional
HCT-116 [28] = test: Antitumor activity against human HCT-116 cells xenografted in BALB/c nude mouse at 5 mg/kg, iv treated for 14 days on every 48 hrs relative to control; assay type: functional; conditions: HCT-116, 336 h, time 14 day, read-out: TGI
HCT-116 [29] = test: Antitumor activity against human HCT-116 cells xenografted in BALB/c nude mouse at 10 mg/kg, iv treated for 14 days on every 48 hrs relative to control; assay type: functional; conditions: HCT-116, 336 h, time 14 day, read-out: TGI
[30] = Toxicity in BALB/c nude mouse xenografted with human HCT-116 cells assessed as change in body weight at 5 to 10 mg/kg, iv treated for 14 days on every 48 hrs; assay type: organism-based; conditions: in vivo, 336 h, dose 5-10 mg/kg, time 14 day
[31] = Toxicity in BALB/c nude mouse xenografted with human HCT-116 cells assessed as change in weight of heart at 5 to 10 mg/kg, iv treated for 14 days on every 48 hrs; assay type: organism-based; conditions: in vivo, 336 h, dose 5-10 mg/kg, time 14 day
[32] = Toxicity in BALB/c nude mouse xenografted with human HCT-116 cells assessed as change in weight of liver at 5 to 10 mg/kg, iv treated for 14 days on every 48 hrs; assay type: organism-based; conditions: in vivo, 336 h, dose 5-10 mg/kg, time 14 day
[33] = Toxicity in BALB/c nude mouse xenografted with human HCT-116 cells assessed as change in weight of spleen at 5 to 10 mg/kg, iv treated for 14 days on every 48 hrs; assay type: organism-based; conditions: in vivo, 336 h, dose 5-10 mg/kg, time 14 day
[34] = Toxicity in BALB/c nude mouse xenografted with human HCT-116 cells assessed as change in weight of lungs at 5 to 10 mg/kg, iv treated for 14 days on every 48 hrs; assay type: organism-based; conditions: in vivo, 336 h, dose 5-10 mg/kg, time 14 day
[35] = Toxicity in BALB/c nude mouse xenografted with human HCT-116 cells assessed as change in weight of kidneys at 5 to 10 mg/kg, iv treated for 14 days on every 48 hrs; assay type: organism-based; conditions: in vivo, 336 h, dose 5-10 mg/kg, time 14 day
[36] = Toxicity in BALB/c nude mouse xenografted with human HCT-116 cells assessed as histopathological change in heart at 5 to 10 mg/kg, iv treated for 14 days on every 48 hrs by H and E staining based analysis; assay type: organism-based; conditions: in vivo, 336 h, dose 5-10 mg/kg, time 14 day
[37] = Toxicity in BALB/c nude mouse xenografted with human HCT-116 cells assessed as histopathological change in liver at 5 to 10 mg/kg, iv treated for 14 days on every 48 hrs by H and E staining based analysis; assay type: organism-based; conditions: in vivo, 336 h, dose 5-10 mg/kg, time 14 day
[38] = Toxicity in BALB/c nude mouse xenografted with human HCT-116 cells assessed as histopathological change in spleen at 5 to 10 mg/kg, iv treated for 14 days on every 48 hrs by H and E staining based analysis; assay type: organism-based; conditions: in vivo, 336 h, dose 5-10 mg/kg, time 14 day
[39] = Toxicity in BALB/c nude mouse xenografted with human HCT-116 cells assessed as histopathological change in lungs at 5 to 10 mg/kg, iv treated for 14 days on every 48 hrs by H and E staining based analysis; assay type: organism-based; conditions: in vivo, 336 h, dose 5-10 mg/kg, time 14 day
[40] = Toxicity in BALB/c nude mouse xenografted with human HCT-116 cells assessed as histopathological change in kidneys at 5 to 10 mg/kg, iv treated for 14 days on every 48 hrs by H and E staining based analysis; assay type: organism-based; conditions: in vivo, 336 h, dose 5-10 mg/kg, time 14 day

Work on `CSCC[C@H](NC(=O)[C@H](CC(C)C)NC(=O)[C@H](CCC(N)=O)NC(=O)[C@@H]1CCCCNCc2ccc(cc2)CNCCCC[C@H](NC(=O)[C@H](Cc2ccccc2)NC(=O)[C@@H](NC(=O)[C@H](CC(C)C)NC(C)=O)[C@@H](C)O)C(=O)N[C@@H](CCC(=O)O)C(=O)N[C@@H](Cc2ccc(O)cc2)C(=O)N[C@@H](Cc2c[nH]c3ccccc23)C(=O)N1)C(=O)N[C@@H](CCC(N)=O)C(=O)N[C@@H](C)C(=O)N[C@@H](C)C(N)=O` yielded an IC50 (MCF7) of 25.3 µM, an IC50 [1] of 7.2 µM and an IC50 (ZR-75-1) of 7.2 µM. The IC50 (HCT-116 [2]) was 14.6 µM, the IC50 (A549) was 6.4 µM and the IC50 (HeLa) was 91.8 µM. For the same compound, the IC50 (A-375) was greater than 160 µM, the IC50 (HepG2) was greater than 160 µM and the IC50 [3] was greater than 160 µM. For the same compound, the IC50 at 72 h [4] was greater than 160 µM, the Activity [5] was 11% and the half-life [6] was 3 h. The Activity (HCT-116 [7]) was 33.8%, the Activity (HCT-116 [8]) was 40.5% and the Activity (HCT-116 [9]) was 23.9%. For the same compound, the Activity (HCT-116 [10]) was 33.9%, the Activity (HCT-116 [11]) was 36.2% and the Activity (HCT-116 [12]) was 29%. It also gave an Activity (HCT-116 [13]) of 34.1%, an Activity (HCT-116 [14]) of 32.3% and an Activity (HCT-116 [15]) of 32.7%. For the same compound, the Activity (HCT-116 [16]) was 55.66%, the Activity (HCT-116 [17]) was 56.51% and the Activity (HCT-116 [18]) was 70.13%.
Work on `CC(=O)N[C@@H](CC(C)C)C(=O)N[C@H](C(=O)N[C@@H](Cc1ccccc1)C(=O)N[C@H]1CCCCNCc2cccc(c2)CNCCCC[C@@H](C(=O)N[C@@H](CCC(N)=O)C(=O)N[C@@H](CC(C)C)C(=O)N[C@H](C(=O)N[C@@H](CO)C(=O)N[C@@H](C)C(=O)N[C@@H](C)C(N)=O)[C@@H](C)O)NC(=O)[C@H](Cc2c[nH]c3ccccc23)NC(=O)[C@H](Cc2ccc(O)cc2)NC(=O)[C@H](Cc2c[nH]cn2)NC1=O)[C@@H](C)O` yielded an IC50 (MCF7) of 2.99 µM, an IC50 [1] of 3.7 µM and an IC50 (ZR-75-1) of 2.6 µM. For the same compound, the IC50 (HCT-116 [2]) was 5.8 µM, the IC50 (A549) was 27.4 µM and the IC50 (HeLa) was 45.9 µM. The IC50 (A-375) was 49.2 µM, the IC50 (HepG2) was greater than 160 µM and the IC50 [3] was greater than 160 µM. The IC50 at 72 h [4] was greater than 160 µM, the Activity [5] was 11% and the half-life [6] was 12 h. It also gave an Activity (HCT-116 [19]) of 35.6%, an Activity (HCT-116 [20]) of 37.7% and an Activity (HCT-116 [21]) of 25.3%. For the same compound, the Activity (HCT-116 [22]) was 38.1%, the Activity (HCT-116 [23]) was 33% and the Activity (HCT-116 [24]) was 28%. For the same compound, the Activity (HCT-116 [25]) was 37.4%, the Activity (HCT-116 [26]) was 30.5% and the Activity (HCT-116 [27]) was 31.2%. The Activity (HCT-116 [16]) was 35.22%, the Activity (HCT-116 [17]) was 94.4% and the Activity (HCT-116 [18]) was 93.14%. For the same compound, the inhibition in vivo at 5 mg/kg (HCT-116 [28]) was 13%, the inhibition in vivo at 10 mg/kg (HCT-116 [29]) was 30% and the Activity [30] was “Non-toxic”. The Activity [31] was “Non-toxic”, the Activity [32] was “Non-toxic” and the Activity [33] was “Non-toxic”. The Activity [34] was “Non-toxic”, the Activity [35] was “Non-toxic” and the Activity [36] was “Non-toxic”. The Activity [37] was “Non-toxic”, the Activity [38] was “Non-toxic” and the Activity [39] was “Non-toxic”. The Activity [40] was “Non-toxic”.
